Literature values in patent US20150141518A1, “WATER-MISCIBLE STABLE SOLUTION COMPOSITION FOR PHARMACEUTICALLY ACTIVE INGREDIENTS THAT ARE POORLY SOLUBLE IN WATER AND SUSCEPTIBLE TO CHEMICAL DEGRADATION” (Emphascience, Inc., priority 2013, published 2015).

How the values were obtained:
[1] = room temperature
[2] = accelerated at extremes of pH and higher temperatures

CC(=O)Nc1ccc(O)cc1 [paracetamol]
solubility of paracetamol in water [1]: ca. 13 mg/mL
overall rate of chemical degradation of paracetamol in solution [2]: first order kinetics
